Our source for the TGI values is PubChem BioAssay (NCI).

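Method: 48-hour compound exposure of cells in 96-well plates, five concentrations, linear interpolation of endpoints. TGI: total growth inhibition.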 Where only a bound is given, the exact number is not on record here.

Some test systems named below: KM12 colon; DU-145 prostate; OVCAR-3 ovarian; MALME-3M melanoma; SNB-75 CNS; HS 578T breast; UACC-62 melanoma; LOX IMVI melanoma; HOP-62 NSCLC; SF-295 CNS; MOLT-4 leukemia; SK-MEL-2 melanoma; HCT-15 colon; SF-539 CNS.
Assay in all cases: NCI tumour cell line growth inhibition, 48 h

Take `NCCSCc1ccccc1Cl`: the TGI was more than 100 µM with KM12 colon; more than 100 µM in the test with DU-145 prostate; 82.9 µM in the test with OVCAR-3 ovarian; more than 100 µM with MALME-3M melanoma; more than 100 µM with SNB-75 CNS; more than 100 µM in the test on HS 578T breast. Further, the TGI with UACC-62 melanoma is more than 100 µM; in the test on LOX IMVI melanoma it was 66.1 µM; in the test on HOP-62 NSCLC, more than 100 µM; with SF-295 CNS it was more than 100 µM; in the test with MOLT-4 leukemia, 86.3 µM; with SK-MEL-2 melanoma it was 87.5 µM. This compound also showed a TGI in the test with HCT-15 colon of more than 100 µM.
Turning to `Cc1sc(C)c2c1C(=O)CC2N` (stereo not drawn), the TGI in the test on KM12 colon is more than 46.4 µM; with DU-145 prostate it was 30.3 µM; in the test on OVCAR-3 ovarian, 32.8 µM; in the test on MALME-3M melanoma, 28.4 µM; in the test on SNB-75 CNS, more than 83.1 µM; in the test with HS 578T breast it was 98 µM. Besides, the TGI in the test on UACC-62 melanoma is more than 100 µM; in the test with LOX IMVI melanoma, 32.2 µM; in the test with HOP-62 NSCLC, more than 100 µM; with SF-295 CNS, more than 100 µM; with MOLT-4 leukemia it was 23.7 µM; in the test with SK-MEL-2 melanoma, more than 100 µM. Moreover, the TGI with HCT-15 colon was more than 58.3 µM; in the test with SF-539 CNS, 14.2 µM.
Regarding `CCCCCCCCCCCCOc1ccc(/C=C/C2=[N+](CCCl)CCO2)cc1`, the TGI in the test with KM12 colon was more than 100 µM; with DU-145 prostate it was more than 100 µM; with OVCAR-3 ovarian, 37.9 µM; in the test with MALME-3M melanoma, more than 100 µM; with SNB-75 CNS, more than 100 µM; in the test on HS 578T breast it was more than 100 µM. The TGI with UACC-62 melanoma is more than 100 µM; in the test on LOX IMVI melanoma, 39.9 µM; in the test on HOP-62 NSCLC, more than 100 µM; in the test with SF-295 CNS it was more than 100 µM; with MOLT-4 leukemia, more than 100 µM; with SK-MEL-2 melanoma, more than 100 µM. Further, the TGI in the test on HCT-15 colon and in the test on SF-539 CNS was more than 100 µM in each case.
For the compound `O=C(NC(Nc1ccc(F)cc1)(C(F)(F)F)C(F)(F)F)C(C(F)(F)F)C(F)(F)F`, the TGI in the test on KM12 colon is more than 100 µM; in the test with DU-145 prostate it was more than 100 µM; in the test on OVCAR-3 ovarian it was more than 100 µM; in the test with MALME-3M melanoma it was more than 100 µM; in the test with SNB-75 CNS, more than 100 µM; with HS 578T breast, more than 90.5 µM. Besides, the TGI in the test with UACC-62 melanoma was more than 100 µM; with LOX IMVI melanoma, more than 100 µM; with HOP-62 NSCLC it was more than 100 µM; with SF-295 CNS, more than 100 µM; in the test with MOLT-4 leukemia it was 36.2 µM; in the test on SK-MEL-2 melanoma, 25.2 µM. The TGI was more than 100 µM in the test with HCT-15 colon and more than 85.9 µM with SF-539 CNS.
As to `CC1Cc2cc(O)c(O)cc2-c2cc(O)c(O)cc2CC1C` (stereo not drawn), the TGI with KM12 colon was 14 µM; with DU-145 prostate, more than 100 µM; in the test on OVCAR-3 ovarian, 29.3 µM; in the test with MALME-3M melanoma, 20.6 µM; in the test on SNB-75 CNS, more than 100 µM; with HS 578T breast it was 61.7 µM. For the same compound, the TGI turned out to be 19.3 µM in the test on UACC-62 melanoma; 23.1 µM in the test on LOX IMVI melanoma; 41.9 µM with HOP-62 NSCLC; 20.8 µM in the test on SF-295 CNS; 32.3 µM in the test on MOLT-4 leukemia; 15 µM in the test on SK-MEL-2 melanoma. The TGI was 36.1 µM with HCT-15 colon and 19.6 µM in the test with SF-539 CNS.
In the case of `Oc1cccc2cc(Br)cnc12`, the TGI with KM12 colon was more than 100 µM; in the test with DU-145 prostate it was more than 100 µM; in the test with OVCAR-3 ovarian it was more than 26.3 µM; in the test with MALME-3M melanoma it was more than 100 µM; in the test with SNB-75 CNS it was more than 83.2 µM; in the test with HS 578T breast, more than 92.6 µM. The TGI in the test with UACC-62 melanoma was 29.2 µM; in the test on LOX IMVI melanoma it was more than 39.7 µM; in the test with HOP-62 NSCLC it was more than 100 µM; with SF-295 CNS, more than 100 µM; in the test with MOLT-4 leukemia, 14.9 µM; in the test on SK-MEL-2 melanoma, more than 100 µM. The TGI is more than 100 µM with HCT-15 colon and 57.3 µM in the test with SF-539 CNS.
As to `CN(C)c1ccc(-c2ccc(N(C)C)c3n[se]nc23)c2n[se]nc12`, the TGI with KM12 colon, with DU-145 prostate, in the test with OVCAR-3 ovarian, in the test with MALME-3M melanoma, in the test with SNB-75 CNS and with HS 578T breast was more than 100 µM throughout. The TGI with UACC-62 melanoma, in the test on LOX IMVI melanoma, in the test on HOP-62 NSCLC, with SF-295 CNS, in the test with MOLT-4 leukemia and in the test on SK-MEL-2 melanoma was more than 100 µM in each case. Moreover, the TGI in the test on HCT-15 colon and in the test on SF-539 CNS was more than 100 µM in each case.
As to `N#Cc1c(Cl)nc2ccccc2c1N=[N+]=[N-]`, the TGI worked out at 17.8 µM with KM12 colon; 28.1 µM in the test with DU-145 prostate; 3.76 µM in the test on OVCAR-3 ovarian; 3.75 µM in the test on MALME-3M melanoma; 21.9 µM with SNB-75 CNS; 17.3 µM in the test on HS 578T breast. In addition, the TGI in the test with UACC-62 melanoma worked out at 7.14 µM; in the test with LOX IMVI melanoma, 3.47 µM; in the test with HOP-62 NSCLC, 32.7 µM; in the test with SF-295 CNS it was 22.4 µM; in the test with MOLT-4 leukemia, 3.17 µM; in the test with SK-MEL-2 melanoma, 5.12 µM. The TGI with HCT-15 colon is 4.3 µM; with SF-539 CNS, 4.6 µM.
Regarding `CN1C=Cc2nccc3cc4c(c1c23)OCO4`, the TGI in the test with KM12 colon is 17.6 µM; in the test on DU-145 prostate, more than 25.1 µM; in the test on OVCAR-3 ovarian, more than 72.4 µM; in the test on MALME-3M melanoma, 0.836 µM; in the test with SNB-75 CNS, 5.3 µM; with HS 578T breast, more than 77.3 µM. The TGI was 5.36 µM with UACC-62 melanoma; more than 100 µM with LOX IMVI melanoma; 32.7 µM in the test with HOP-62 NSCLC; 10.1 µM in the test with SF-295 CNS; more than 93 µM in the test on MOLT-4 leukemia; 11.3 µM with SK-MEL-2 melanoma. The compound also returned a TGI in the test on HCT-15 colon of more than 66.3 µM.
Take `CC1(C)C2CC3C4CC5(Nc6ccccc6C5N41)[C@]3(C)CC2=O` (stereo partly drawn): the TGI with KM12 colon, with DU-145 prostate, in the test on OVCAR-3 ovarian, in the test on MALME-3M melanoma, in the test with SNB-75 CNS and in the test on HS 578T breast was more than 50 µM each time. The TGI with UACC-62 melanoma, in the test with LOX IMVI melanoma, in the test with HOP-62 NSCLC, in the test with SF-295 CNS, with MOLT-4 leukemia and with SK-MEL-2 melanoma was more than 50 µM each time. The TGI in the test with HCT-15 colon and with SF-539 CNS was more than 50 µM each time.
